# From US20200188441A1, “METHODS AND COMPOSITIONS FOR REDUCING CORNEAL ENDOTHELIAL CELL LOSS” (The Schepens Eye Research Institute, Inc., priority 2017, published 2020)
# No end group written: not given here.
# Columns and labels:
# [1] = tested on: corneal endothelial cells; test: IFNγ- and TNFα-mediated corneal endothelial cell apoptosis in corneal cups ex vivo (TUNEL); type: cell-based, C57BL/6; details: VIP 10^−6 M; 18 hours of incubation
# Method: FIG. 10A is a set of micrographs and FIG. 10B is a graph showing that VIP suppresses IFNγ- and TNFα-mediated corneal endothelial cell apoptosis. FIG. 10A: Representative confocal micrographs showing nave C57BL/6 corneal cups incubated with either IFNγ or TNFα with or without VIP (10^−12, 10^−9, 10^−6 M). After 18 hours of incubation, corneas were stained for zonula occluden-1 (ZO-1, green) and terminal deoxynucleotidyl transferase-mediated dUTP nick-end labeling assay (TUNEL, red) to visualize endothelial cell-to-cell junctions and apoptotic cells, respectively. The scale bars are equal to 100 μm (magnification ×40). FIG. 10B: Bar diagram showing the percentages of apoptotic (TUNEL-positive) corneal endothelial cells incubated ex vivo with either IFNγ or TNFα with different doses of VIP. […] Data are presented as mean±SEM. Each group consists of n=5 corneas and data from one out of two independent experiments is shown.
# [2] = tested on: corneal graft; test: Murine model of syngeneic corneal transplantation with endothelial injury; type: in vivo
# From the text: FIG. 11A: Representative slit-lamp images showing corneas at week 2-6 post-transplantation (magnification ×25). […] FIG. 11C: Representative confocal micrographs of central area of transplanted corneas isolated from VIP-treated mice and the control groups at week 2, 4 and 6 after transplantation. To visualize corneal endothelial cell-to-cell junctions, corneas were stained with zonula occluden-1 (ZO-1, green). The scale bars are equal to 100 μm (magnification ×40). FIG. 11D: Bar diagram showing central endothelial cell density in VIP-treated corneas and controls at 2, 4 and 6 weeks post-transplantation. Data are presented as mean±SEM. Each group consists of n=6 corneas, and data from one out of two independent experiments is shown.
# [3] = tested on: human corneal endothelial cells; test: Corneal endothelial wound healing in vitro; type: cell-based; details: VIP 10^−9, 10^−7 and 10^−6 M; 12 and 24 hours after incubation; vs control
# From the text: FIG. 9 is a graph showing that VIP treatment of human corneal endothelial cells accelerates corneal endothelial wound healing in vitro in a dose-dependent manner Percentage of healed endothelial area compared to baseline in VIP-treated groups and in control. […] Error bars indicate mean±SEM. Each group consists of n=9, and data from one out of two independent experiments is shown.
# [4] = tested on: corneal graft; test: High-risk allogeneic corneal transplantation; type: in vivo, mice
# From the text: FIGS. 12A-D are graphs and images showing the effect of VIP treatment on high-risk corneal transplant survival. Animals underwent high-risk allogeneic corneal transplantation and received treatment with VIP at 1, 3, 5, 7 and 9 days after transplantation. […] Each group consists of n=14. FIG. 12C: Representative confocal micrographs of central area of transplanted corneas in VIP-treated mice and in controls at 1, 2 and 8 weeks post-transplantation. Corneal endothelial cell-to-cell junction were stained and visualized with zonula occluden-1 (ZO-1, green). The scale bars are equal to 100 μm (magnification ×40). […] Horizontal line represents the CEnC density of nave age-matched C57BL/6 corneas. Each group consists of n=5 corneas. All data are presented as mean±SEM, and data from one out of two independent experiments is shown.
substance,measurement,setting,value
"VIP: vasoactive intestinal polypeptide, a neuropeptide; exemplary human sequence SEQ ID NO: 5 (HSDAVFTDNYTRLRKQMAVKKYLNSILN; ends and bridges not checked; UniProt P01282 125-152, looked up)",IFNγ-mediated corneal endothelial cell apoptosis (TUNEL-positive cells),[1],significantly suppresses
same,TNFα-mediated corneal endothelial cell apoptosis (TUNEL-positive cells),[1],significantly suppresses
same,corneal endothelial wound healing,[2]; syngeneic transplantation with endothelial injury,enhances corneal endothelial wound healing
same,graft opacity scores,"[2]; week 2 to 6 post-transplantation, vs control",significantly decreased
same,wound healing (percentage of healed endothelial area compared to baseline),[3],significantly enhanced wound healing
same,graft opacity scores,"[4]; 4 to 8 weeks post-transplantation, VIP at 1, 3, 5, 7 and 9 days after transplantation",significantly decreased
same,central CEnC density,"[4]; 8 weeks post-transplantation, vs control",significantly higher
same,"hazard ratio (graft survival, VIP-treated vs controls)","[4]; 8 weeks, 95% CI 0.04-0.26, Log rank test",0.10
same,graft survival,"[4]; weekly examination for 8 weeks, controls 0%",85%
